For assay [1], the system named is histone H3 acetylation (acH3K9) in undifferentiated SH-SY5Y cells. The assay is described as follows: Histone H3 acetylation in cells (Western immunoblot). It counts as cell-based. The following applies: Homo sapiens, 4 hours, acetyl histone H3K9/histone H3 ratio. On the procedure: (§1) Compound EC50 Determination for Tubulin- and Histone H3 Acetylation in Cells
(§2) Estimation of the EC50 for exemplary compounds to alter target protein acetylation in undifferentiated SH-SY5Y cells was performed using standard Western immunoblotting methods. […] SH-SY5Y cells were grown to 90% confluency on sterile cell growth plates. 10 mM compound stocks prepared in DMSO and two-fold serial dilutions were prepared from the stock and applied to cells to achieve a 12-point concentration range in cell media from an upper limit of 10 μM to a lower limit of DMSO [zero compound].
(§3) Cells were incubated under normal growth conditions (37° C., 5% CO2) in the presence of compound for 4 hours, then media was aspirated and cells were rinsed two times with 1×DPBS with calcium and magnesium warmed to 37° C. Cells were frozen directly on the plates on a bed of dry ice for 5 min, then stored at −80° C. until protein extraction.
(§4) Protein extraction was performed in RIPA buffer (50 mM Tris-HCL pH 8.0, 150 mM NaCl, 0.5% sodium deoxycholate, 0.1% sodium dodecyl sulfate, 1% NP-40) supplemented with Pierce protease inhibitor mini tables (Thermofisher cat #A32953) exactly as described by the manufacturer. After thawing the plate on a bed of wet ice for 10 minutes, lysis buffer was added to each well (e.g. 100 μL per well of a 24-well plate) and cells scraped from the bottom of each well. Lysates were then sonicated over ice (40% power, 30 pulses of 1 second on, 2 seconds off), centrifuged at 16,000 g for 10 min at 4° C., and the clarified supernatant saved. Protein concentration was determined by BCA assay and at least 3 μg prepared per lane by combining lysate supernatant aliquot with 1/3 total volume of 3× gel loading buffer containing DTT (NEB Cat. #B7703S), heating for 5 minutes at 95° C., briefly centrifuging and then loading on an SDS-PAGE gel.
(§5) Proteins were resolved on a 4-20% Tris-Glycine gel and transferred to PVDF membrane using an iBlot2 dry transfer system. The membrane was then blocked for at least 30 minutes at room temperature in TBST containing 5% milk or 5% bovine serum albumin, then incubated overnight at 4° C. with a single primary antibody from the following table:
(§6) Following primary antibody incubation, membranes were washed, incubated in secondary antibody, washed and incubated in ECL prime western blotting detection reagent (Amersham #RPN223) with membrane exposure and ECL signal capture in a LI-COR Odyssey Imaging system. […] Subsequent densitometry of immunoreactive bands was performed using the ImageStudio software and Microsoft Excel resulting in the following ratios: acetylTubulin/Tubulin and acetyl histone H3K9/histone H3. Raw ratios were uploaded to GraphPad Prism v7.0 with EC50 values modeled using the variable slope equation for log-transformed data [log(agonist) vs response in Prism].
(In general: A western blot detects proteins with antibodies after separation by electrophoresis.)

The next assay concerns the target Full length Human HDAC5 (Homo sapiens, UniProt Q9UQL6).
The next assay deals with T1, Full length Human HDAC11 (Homo sapiens, UniProt Q96DB2).
T1 sequence (Q96DB2 1-347): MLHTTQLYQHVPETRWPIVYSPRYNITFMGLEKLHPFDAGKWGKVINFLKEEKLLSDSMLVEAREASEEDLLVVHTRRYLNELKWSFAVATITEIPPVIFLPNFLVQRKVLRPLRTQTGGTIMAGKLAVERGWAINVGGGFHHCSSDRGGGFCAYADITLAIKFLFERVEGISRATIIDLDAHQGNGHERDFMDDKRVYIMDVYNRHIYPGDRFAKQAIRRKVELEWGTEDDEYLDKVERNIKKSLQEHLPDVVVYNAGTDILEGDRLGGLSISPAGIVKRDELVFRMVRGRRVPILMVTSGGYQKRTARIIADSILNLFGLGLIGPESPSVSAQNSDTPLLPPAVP

For assay [2], the system named is tubulin acetylation (acTubK40) in undifferentiated SH-SY5Y cells. As to the kind of experiment: Tubulin acetylation in cells (Western immunoblot). Type of assay: cell-based. The following applies: Homo sapiens, 4 hours, acetylTubulin/Tubulin ratio. On the procedure: as §1, §2, §3, §4, §5, §6
Assay [3] deals with Human HDAC4 aa 101-1084(end) (Homo sapiens, UniProt P56524).
For the next assay, the target named is Full length Human HDAC2 (Homo sapiens, UniProt Q92769).
The target of assay [4] is Human HDAC9 a.a. 604-1066 (Homo sapiens, UniProt Q9UKV0).

Structures are written as SMILES. pEC50, pIC50: −log10 of the molar value.

Among the data in patent US12528767B2, “HDAC6 inhibitors and uses thereof” (Eikonizo Therapeutics, Inc., priority 2019, dated 2026) are EC50 and IC50 values, retold here.

As a reminder, the pEC50 is the EC50 on a negative log10 scale, so that one unit is a factor of ten. Usually pIC50 stands for the negative decadic logarithm of the IC50, by convention in mol/L.

Full length Human HDAC2, sequence (Q92769 whole entry): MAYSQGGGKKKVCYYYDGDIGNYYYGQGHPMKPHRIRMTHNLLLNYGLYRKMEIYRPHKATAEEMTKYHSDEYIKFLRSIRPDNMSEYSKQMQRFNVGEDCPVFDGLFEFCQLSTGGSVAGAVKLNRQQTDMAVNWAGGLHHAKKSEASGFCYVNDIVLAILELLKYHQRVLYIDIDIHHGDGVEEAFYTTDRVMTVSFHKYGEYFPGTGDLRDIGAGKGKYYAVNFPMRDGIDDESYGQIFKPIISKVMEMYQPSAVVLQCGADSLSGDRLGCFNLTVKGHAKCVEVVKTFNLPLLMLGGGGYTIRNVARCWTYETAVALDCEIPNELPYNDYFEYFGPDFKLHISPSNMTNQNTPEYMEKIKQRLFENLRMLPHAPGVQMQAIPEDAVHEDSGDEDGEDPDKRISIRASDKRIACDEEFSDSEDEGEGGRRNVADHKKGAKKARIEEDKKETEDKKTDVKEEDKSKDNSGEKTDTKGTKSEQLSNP
Human HDAC4 aa 101-1084(end), sequence (P56524 101-1084): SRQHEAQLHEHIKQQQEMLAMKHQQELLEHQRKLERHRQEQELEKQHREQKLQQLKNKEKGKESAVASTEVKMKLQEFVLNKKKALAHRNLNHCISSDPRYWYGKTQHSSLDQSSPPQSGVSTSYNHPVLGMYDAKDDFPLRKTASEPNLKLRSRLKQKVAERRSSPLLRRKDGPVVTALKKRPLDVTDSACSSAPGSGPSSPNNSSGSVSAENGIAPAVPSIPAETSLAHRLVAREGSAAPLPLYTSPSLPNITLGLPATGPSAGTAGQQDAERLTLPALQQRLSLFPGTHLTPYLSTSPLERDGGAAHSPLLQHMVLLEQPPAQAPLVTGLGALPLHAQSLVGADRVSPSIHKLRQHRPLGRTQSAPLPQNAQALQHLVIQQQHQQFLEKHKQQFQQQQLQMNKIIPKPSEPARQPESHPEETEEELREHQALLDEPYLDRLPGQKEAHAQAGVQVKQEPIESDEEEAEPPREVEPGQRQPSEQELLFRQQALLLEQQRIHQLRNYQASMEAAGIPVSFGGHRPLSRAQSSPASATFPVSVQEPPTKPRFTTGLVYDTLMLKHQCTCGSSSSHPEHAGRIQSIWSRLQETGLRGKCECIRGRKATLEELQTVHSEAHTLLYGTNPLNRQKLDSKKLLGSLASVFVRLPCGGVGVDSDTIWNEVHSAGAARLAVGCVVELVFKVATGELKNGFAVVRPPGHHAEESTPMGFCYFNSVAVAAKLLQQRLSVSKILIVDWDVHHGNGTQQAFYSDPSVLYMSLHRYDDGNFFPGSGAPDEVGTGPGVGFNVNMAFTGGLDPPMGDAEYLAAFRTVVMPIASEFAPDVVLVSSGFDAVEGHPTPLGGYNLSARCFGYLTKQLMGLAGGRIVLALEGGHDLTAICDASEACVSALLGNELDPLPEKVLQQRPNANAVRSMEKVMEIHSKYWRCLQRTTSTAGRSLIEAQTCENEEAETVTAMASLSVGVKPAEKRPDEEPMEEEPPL
Human HDAC9 a.a. 604-1066, sequence (Q9UKV0 604-1066 isoform Q9UKV0-5): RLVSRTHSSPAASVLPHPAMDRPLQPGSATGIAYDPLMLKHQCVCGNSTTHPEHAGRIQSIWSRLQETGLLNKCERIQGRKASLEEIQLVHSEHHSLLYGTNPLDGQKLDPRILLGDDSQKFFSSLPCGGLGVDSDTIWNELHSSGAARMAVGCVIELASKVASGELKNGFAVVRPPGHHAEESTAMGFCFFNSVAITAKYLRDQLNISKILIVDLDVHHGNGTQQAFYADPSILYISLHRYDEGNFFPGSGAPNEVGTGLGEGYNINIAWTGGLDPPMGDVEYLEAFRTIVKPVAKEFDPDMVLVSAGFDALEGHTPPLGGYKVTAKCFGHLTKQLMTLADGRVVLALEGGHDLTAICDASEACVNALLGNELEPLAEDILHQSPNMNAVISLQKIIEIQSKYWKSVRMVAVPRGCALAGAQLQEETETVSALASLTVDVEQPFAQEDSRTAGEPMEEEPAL
Full length Human HDAC5, sequence (Q9UQL6 whole entry): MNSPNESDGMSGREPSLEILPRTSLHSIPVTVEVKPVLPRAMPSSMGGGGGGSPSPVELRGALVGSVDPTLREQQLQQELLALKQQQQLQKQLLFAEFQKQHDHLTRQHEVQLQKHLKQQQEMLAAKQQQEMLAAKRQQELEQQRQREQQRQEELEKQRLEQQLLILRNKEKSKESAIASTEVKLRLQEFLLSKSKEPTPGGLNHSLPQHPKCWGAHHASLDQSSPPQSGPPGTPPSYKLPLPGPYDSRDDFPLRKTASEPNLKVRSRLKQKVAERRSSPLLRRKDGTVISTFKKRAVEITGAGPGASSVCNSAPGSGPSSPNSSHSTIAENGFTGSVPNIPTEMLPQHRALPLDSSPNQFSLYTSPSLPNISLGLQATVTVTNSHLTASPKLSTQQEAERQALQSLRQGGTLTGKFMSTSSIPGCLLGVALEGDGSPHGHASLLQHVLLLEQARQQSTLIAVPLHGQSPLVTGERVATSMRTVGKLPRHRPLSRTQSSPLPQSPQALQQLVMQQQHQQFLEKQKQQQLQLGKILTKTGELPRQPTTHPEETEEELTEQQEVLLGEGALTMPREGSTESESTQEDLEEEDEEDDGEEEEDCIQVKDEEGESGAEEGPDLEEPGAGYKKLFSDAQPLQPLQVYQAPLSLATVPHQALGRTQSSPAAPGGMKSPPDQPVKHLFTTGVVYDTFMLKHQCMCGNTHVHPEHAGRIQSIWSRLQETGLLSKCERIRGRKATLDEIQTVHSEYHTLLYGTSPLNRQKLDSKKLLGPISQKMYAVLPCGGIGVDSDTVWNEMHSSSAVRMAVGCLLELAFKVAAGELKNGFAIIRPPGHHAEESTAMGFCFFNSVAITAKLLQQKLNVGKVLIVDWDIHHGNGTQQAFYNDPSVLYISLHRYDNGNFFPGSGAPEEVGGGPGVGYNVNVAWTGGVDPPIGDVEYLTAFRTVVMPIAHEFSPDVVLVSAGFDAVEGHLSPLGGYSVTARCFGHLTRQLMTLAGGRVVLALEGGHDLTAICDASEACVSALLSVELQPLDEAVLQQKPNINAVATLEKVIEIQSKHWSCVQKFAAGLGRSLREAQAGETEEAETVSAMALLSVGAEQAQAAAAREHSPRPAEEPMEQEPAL

For the compound `O=C(NO)c1cc(F)c2c(c1)CCN(CC13CC4CC(CC(C4)C1)C3)C2` [compound 34], the figures for the pEC50 in assay [1] and in assay [2] were less than 5.00 and 5.68, respectively. Also, the negative logarithm of the IC50 (pIC50) against Full length Human HDAC5 was 4.00 to 5.00; on Full length Human HDAC11, 5.00 to 6.00; in assay [3], 4.00 to 5.00; against Full length Human HDAC2 it was 4.00 to 5.00; in assay [4], 4.00 to 5.00.
Turning to `O=C(NO)c1ccc(CN2C[C@H]3CC[C@@H]2CO3)c(F)c1` (single isomer, unassigned) [compound 173], the pIC50 on Full length Human HDAC5 is 4.00 to 5.00; against Full length Human HDAC11 it was 4.00 to 5.00; in assay [3], 5.00 to 6.00; at Full length Human HDAC2 it was 4.00 to 5.00; in assay [4], 5.00 to 6.00.
Regarding `O=C(NO)c1ccc(CN2CCC3(CCCCC3)C2)c(F)c1` [compound 75, 4-((2-Azaspiro[4.5]decan-2-yl)methyl)-3-fluoro-N-hydroxybenzamide], the figures for the pEC50 in assay [1] and in assay [2] were less than 5.00 and 5.85, respectively.
As to `O=C(NO)c1ccc(CN2CC3CCC(C2)O3)c(F)c1` [compound 53], the values for the pEC50 in assay [1] and in assay [2] were less than 5.00 and 6.70, respectively. Moreover, the pIC50 is 5.00 to 6.00 at Full length Human HDAC5; 4.00 to 5.00 against Full length Human HDAC11; 5.00 to 6.00 in assay [3]; 4.00 to 5.00 on Full length Human HDAC2; 6.00 to 7.00 in assay [4].
Take `O=C(NO)c1cc(F)c2c(c1)C[C@H]1CCCCN1C2` (single isomer, unassigned) [compound 94]: the pIC50 is 4.00 to 5.00 on Full length Human HDAC5; less than 4.00 against Full length Human HDAC11; 4.00 to 5.00 in assay [3]; less than 4.00 at Full length Human HDAC2; 5.00 to 6.00 in assay [4].
With `O=C(NO)c1cc(F)c2c(c1)CCN1CCC[C@@H]21` (single isomer, unassigned) [compound 79], the values for the pEC50 in assay [1] and in assay [2] were less than 5.00 and 6.36, respectively. The pIC50 is 5.00 to 6.00 against Full length Human HDAC5; less than 4.00 against Full length Human HDAC11; 5.00 to 6.00 in assay [3]; 4.00 to 5.00 on Full length Human HDAC2; 6.00 to 7.00 in assay [4].
`O=C(NO)c1ccc(CN2CC3CCC2CO3)c(F)c1` (stereo not shown) [compound 58]: the pEC50 was 5.60 in assay [1] and 5.59 in assay [2]. Further, the pIC50 is 5.00 to 6.00 against Full length Human HDAC5; less than 4.00 at Full length Human HDAC11; 5.00 to 6.00 in assay [3]; 4.00 to 5.00 on Full length Human HDAC2; 5.00 to 6.00 in assay [4].
Regarding `O=C(NO)c1ccc2c(c1)CN1CCCCN1C2` [compound 106, N-hydroxy-1,2,3,4,6,11-hexahydropyridazino[1,2-b]phthalazine-8-carboxamide], the pIC50 was less than 4.00 on Full length Human HDAC5; 4.00 to 5.00 against Full length Human HDAC11; 4.00 to 5.00 in assay [3]; 4.00 to 5.00 against Full length Human HDAC2; 4.00 to 5.00 in assay [4].
As for `O=C(NO)c1cc(F)c2c(c1)CCN(Cc1ccccc1)C2` [compound 32], the figures for the negative logarithm of the EC50 (pEC50) in assay [1] and in assay [2] were less than 5.00 and 6.52, respectively.
For `O=C(NO)c1cc(F)c2c(c1)C[C@@H]1CCCCN1C2` (single isomer, unassigned) [compound 93], the pIC50 on Full length Human HDAC5 was 5.00 to 6.00; against Full length Human HDAC11, 5.00 to 6.00; in assay [3] it was 5.00 to 6.00; against Full length Human HDAC2, 4.00 to 5.00; in assay [4], 5.00 to 6.00.
In the case of `O=C(NO)c1cc(F)c2c(c1)CCN(C1CC3(CCCCC3)C1)C2` [compound 16], the pEC50 in assay [1] was less than 5.00; in assay [2], 5.54. In addition, the pIC50 was less than 4.00 at Full length Human HDAC5; 5.00 to 6.00 at Full length Human HDAC11; 4.00 to 5.00 in assay [3]; 4.00 to 5.00 on Full length Human HDAC2; less than 4.00 in assay [4].
Consider `O=C(NO)c1ccc(CN2C[C@@H]3CC[C@H]2CO3)c(F)c1` (single isomer, unassigned) [compound 172], for which the pIC50 at Full length Human HDAC5 was 4.00 to 5.00; against Full length Human HDAC11, 7.00 to 9.00; in assay [3] it was 4.00 to 5.00; against Full length Human HDAC2 it was less than 4.00; in assay [4], 4.00 to 5.00.
